{
  "source": "paper PMC6458995",
  "about": "“MAP4K4 Inhibition Promotes Survival of Human Stem Cell-Derived Cardiomyocytes and Reduces Infarct Size In Vivo” (Cell Stem Cell, 2019)",
  "assay_in_all_cases": "Dundee kinase panel",
  "assay_type_in_all_cases": "biochemical",
  "details_in_all_cases": "for remaining activity at 1 µM: read-out: residual activity",
  "key": {"EPH-B4": {"molecular_target": "T1, EPH-B4 (Homo sapiens, UniProt P54760)", "T1 construct": "lines 1-140) and Reaction Biology", "T1 sequence (P54760 16-987)": "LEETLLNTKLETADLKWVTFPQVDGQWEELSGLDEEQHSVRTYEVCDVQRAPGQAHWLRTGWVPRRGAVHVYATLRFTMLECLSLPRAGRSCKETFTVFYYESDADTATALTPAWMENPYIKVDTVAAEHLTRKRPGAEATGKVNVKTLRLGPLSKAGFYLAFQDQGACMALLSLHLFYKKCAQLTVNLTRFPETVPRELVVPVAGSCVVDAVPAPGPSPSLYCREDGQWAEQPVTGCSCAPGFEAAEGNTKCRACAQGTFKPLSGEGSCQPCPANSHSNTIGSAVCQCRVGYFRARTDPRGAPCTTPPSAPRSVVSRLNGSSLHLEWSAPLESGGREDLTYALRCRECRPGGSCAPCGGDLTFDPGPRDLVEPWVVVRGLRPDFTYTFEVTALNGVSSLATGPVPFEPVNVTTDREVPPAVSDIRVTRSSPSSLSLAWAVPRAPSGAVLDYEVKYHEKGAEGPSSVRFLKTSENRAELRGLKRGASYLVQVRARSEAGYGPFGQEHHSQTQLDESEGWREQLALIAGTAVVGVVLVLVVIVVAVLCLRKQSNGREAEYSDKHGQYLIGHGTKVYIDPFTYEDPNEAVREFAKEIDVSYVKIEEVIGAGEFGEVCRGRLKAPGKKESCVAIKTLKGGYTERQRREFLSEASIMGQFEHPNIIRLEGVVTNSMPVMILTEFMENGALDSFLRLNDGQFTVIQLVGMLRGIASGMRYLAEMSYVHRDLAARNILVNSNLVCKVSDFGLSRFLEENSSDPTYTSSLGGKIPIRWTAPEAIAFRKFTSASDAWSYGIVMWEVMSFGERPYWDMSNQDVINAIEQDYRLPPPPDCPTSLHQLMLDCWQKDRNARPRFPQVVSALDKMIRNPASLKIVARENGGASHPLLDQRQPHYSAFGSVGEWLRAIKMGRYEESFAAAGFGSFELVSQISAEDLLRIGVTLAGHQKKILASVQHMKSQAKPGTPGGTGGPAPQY", "protocol": "(§1) Compounds were screened at 1 μM. For key hits, pIC50 values were then determined by HTRF as above. […] Stability in mouse and human liver microsomes was determined by Cyprotex."}, "Aurora B": {"molecular_target": "T2, Aurora B (Homo sapiens, UniProt Q96GD4)", "T2 construct": "lines 1-140) and Reaction Biology", "T2 sequence (Q96GD4 whole entry)": "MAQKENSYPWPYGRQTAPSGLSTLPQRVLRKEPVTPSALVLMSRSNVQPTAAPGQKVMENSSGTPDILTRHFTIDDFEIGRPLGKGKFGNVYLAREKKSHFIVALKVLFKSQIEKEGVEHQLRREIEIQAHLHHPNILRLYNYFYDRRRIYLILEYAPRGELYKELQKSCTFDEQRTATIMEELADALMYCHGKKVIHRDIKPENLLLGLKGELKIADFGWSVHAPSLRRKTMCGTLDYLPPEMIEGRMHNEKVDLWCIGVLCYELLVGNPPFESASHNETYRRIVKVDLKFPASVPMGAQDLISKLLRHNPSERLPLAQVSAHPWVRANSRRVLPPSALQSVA", "protocol": "as §1"}, "TBK1": {"molecular_target": "T3, TBK1 (Homo sapiens, UniProt Q9UHD2)", "T3 construct": "lines 1-140) and Reaction Biology", "T3 sequence (Q9UHD2 1-729)": "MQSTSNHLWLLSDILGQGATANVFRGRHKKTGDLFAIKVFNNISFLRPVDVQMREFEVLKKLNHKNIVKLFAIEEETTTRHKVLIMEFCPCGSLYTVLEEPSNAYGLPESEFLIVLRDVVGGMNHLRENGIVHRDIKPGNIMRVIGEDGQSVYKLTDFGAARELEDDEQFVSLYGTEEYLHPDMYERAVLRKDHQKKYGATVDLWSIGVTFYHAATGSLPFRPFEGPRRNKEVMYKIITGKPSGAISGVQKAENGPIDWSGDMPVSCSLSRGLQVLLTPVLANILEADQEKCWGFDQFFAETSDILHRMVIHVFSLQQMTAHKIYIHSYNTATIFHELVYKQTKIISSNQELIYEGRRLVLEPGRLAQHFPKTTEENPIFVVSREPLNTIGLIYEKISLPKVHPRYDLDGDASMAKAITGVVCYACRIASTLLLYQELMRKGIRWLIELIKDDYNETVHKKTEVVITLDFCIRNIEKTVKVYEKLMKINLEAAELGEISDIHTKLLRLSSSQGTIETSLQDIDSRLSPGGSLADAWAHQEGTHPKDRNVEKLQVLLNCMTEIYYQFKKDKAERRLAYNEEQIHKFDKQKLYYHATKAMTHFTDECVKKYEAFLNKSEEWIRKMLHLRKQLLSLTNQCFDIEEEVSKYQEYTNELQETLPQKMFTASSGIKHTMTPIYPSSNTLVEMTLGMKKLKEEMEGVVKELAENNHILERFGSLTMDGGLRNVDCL", "protocol": "as §1"}, "TAO1": {"molecular_target": "T4, TAO1 (Homo sapiens, UniProt Q7L7X3)", "T4 construct": "lines 1-140) and Reaction Biology", "T4 sequence (Q7L7X3 1-1001)": "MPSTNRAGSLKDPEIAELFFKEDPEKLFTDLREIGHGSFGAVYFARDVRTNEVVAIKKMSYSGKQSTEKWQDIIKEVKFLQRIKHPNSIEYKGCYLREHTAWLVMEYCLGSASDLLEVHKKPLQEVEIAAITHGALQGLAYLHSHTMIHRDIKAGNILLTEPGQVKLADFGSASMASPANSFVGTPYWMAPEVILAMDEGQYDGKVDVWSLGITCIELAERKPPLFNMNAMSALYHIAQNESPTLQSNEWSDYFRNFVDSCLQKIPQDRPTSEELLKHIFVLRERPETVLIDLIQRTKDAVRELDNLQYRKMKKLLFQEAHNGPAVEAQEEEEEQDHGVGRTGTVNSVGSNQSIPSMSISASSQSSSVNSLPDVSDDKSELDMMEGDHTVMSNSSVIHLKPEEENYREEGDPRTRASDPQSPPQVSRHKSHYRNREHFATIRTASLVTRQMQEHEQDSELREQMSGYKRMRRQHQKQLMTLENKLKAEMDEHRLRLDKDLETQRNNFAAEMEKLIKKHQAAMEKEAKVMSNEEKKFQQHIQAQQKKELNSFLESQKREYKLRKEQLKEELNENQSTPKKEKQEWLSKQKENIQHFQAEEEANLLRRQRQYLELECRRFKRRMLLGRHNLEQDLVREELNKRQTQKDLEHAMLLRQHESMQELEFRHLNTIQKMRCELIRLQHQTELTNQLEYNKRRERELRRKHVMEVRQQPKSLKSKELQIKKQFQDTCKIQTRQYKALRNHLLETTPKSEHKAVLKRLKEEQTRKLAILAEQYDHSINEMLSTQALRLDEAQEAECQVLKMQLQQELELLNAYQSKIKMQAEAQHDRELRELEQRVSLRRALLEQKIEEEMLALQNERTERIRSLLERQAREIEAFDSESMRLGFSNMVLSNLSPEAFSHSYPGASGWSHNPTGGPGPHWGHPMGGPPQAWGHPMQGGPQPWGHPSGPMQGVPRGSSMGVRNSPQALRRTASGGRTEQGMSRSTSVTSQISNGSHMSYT", "protocol": "as §1"}},
  "data": [
    {"smiles": "COCCOc1ccc(-c2cn(-c3ccccc3)c3nc[nH]c(=O)c23)cc1", "note": "[DMX-5804, 5-[4-(2-methoxy-ethoxy)-phenyl]-7-phenyl-3,7-dihydro-pyrrolo[2,3-d]pyrimidin-4-one]", "values": [
      {"measurement": "remaining activity at 1 µM", "setting": "EPH-B4", "result": 100, "unit": "%"},
      {"measurement": "remaining activity at 1 µM", "setting": "Aurora B", "result": 29, "unit": "%"},
      {"measurement": "remaining activity at 1 µM", "setting": "TBK1", "result": 48, "unit": "%"},
      {"measurement": "remaining activity at 1 µM", "setting": "TAO1", "result": 120, "unit": "%"}
    ]},
    {"smiles": "Oc1ncnc2c1c(-c1ccccc1)cn2-c1ccccc1", "note": "[F1386-0303, 5,7-diphenyl-7H-pyrrolo[2,3-d]pyrimidin-4-ol]", "values": [
      {"measurement": "remaining activity at 1 µM", "setting": "EPH-B4", "result": 102, "unit": "%"},
      {"measurement": "remaining activity at 1 µM", "setting": "Aurora B", "result": 85, "unit": "%"},
      {"measurement": "remaining activity at 1 µM", "setting": "TBK1", "result": 97, "unit": "%"},
      {"measurement": "remaining activity at 1 µM", "setting": "TAO1", "result": 98, "unit": "%"}
    ]},
    {"smiles": "Nc1ncc(C(=O)NC2CN(C(=O)C3CC3)C2)c2ccc(-c3cccc(F)c3)nc12", "note": "[GNE-495]", "values": [
      {"measurement": "residual activity", "setting": "EPH-B4; 1 μM", "result": 106, "unit": "%"},
      {"measurement": "residual activity", "setting": "Aurora B; 1 μM", "result": 46, "unit": "%"},
      {"measurement": "residual activity", "setting": "TBK1; 1 μM", "result": 104, "unit": "%"},
      {"measurement": "residual activity", "setting": "TAO1; 1 μM", "result": 75, "unit": "%"}
    ]},
    {"smiles": "O=C1Nc2ccc(I)cc2/C1=C/c1cc(Br)c(O)c(Br)c1", "note": "[GW5074]", "values": [
      {"measurement": "remaining activity at 1 µM", "setting": "EPH-B4", "result": 94, "unit": "%"},
      {"measurement": "remaining activity at 1 µM", "setting": "Aurora B", "result": 29, "unit": "%"},
      {"measurement": "remaining activity at 1 µM", "setting": "TBK1", "result": 83, "unit": "%"},
      {"measurement": "remaining activity at 1 µM", "setting": "TAO1", "result": 96, "unit": "%"}
    ]},
    {"smiles": "O=C1Cc2c([nH]c3ccc(Br)cc23)-c2ccccc2N1", "note": "[Kenpaullone]", "values": [
      {"measurement": "remaining activity at 1 µM", "setting": "EPH-B4", "result": 85, "unit": "%"},
      {"measurement": "remaining activity at 1 µM", "setting": "Aurora B", "result": 46, "unit": "%"},
      {"measurement": "remaining activity at 1 µM", "setting": "TBK1", "result": 90, "unit": "%"},
      {"measurement": "remaining activity at 1 µM", "setting": "TAO1", "result": 93, "unit": "%"}
    ]}
  ]
}
